According to US9617271B2, “Triazolo compounds” (Hoffmann-La Roche Inc., priority 2012, dated 2017):

Biological target: human PDE10A (Homo sapiens (Human), UniProt Q9Y233)
Assay: human PDE10A full length assay ([3H]-cGMP SPA)
Format: biochemical
Details: human PDE10A full length enzyme, 50 nM cGMP + 50 nM [3H]-cGMP, 20 minutes at room temperature; read-out: PDE10A inhibition IC50
Protocol: The human PDE10A full length assay was performed in 96-well micro titer plates. The reaction mixture of 50 μl contained 20 mM HEPES pH=7.5/10 mM MgCl2/0.05 mg/ml BSA (Sigma cat. #A-7906), 50 nM cGMP (Sigma, cat. #G6129) and 50 nM [3H]-cGMP (GE Healthcare, cat. #TRK392 S.A. 13.2 Ci/mmol), 3.75 ng/well PDE10A enzyme (Enzo Life Science, Lausen, Switzerland cat #SE-534) with or without a specific test compound. A range of concentrations of the potential inhibitor was used to generate data for calculating the concentration of inhibitor resulting in 50% of the effect (e.g. IC50, the concentration of the competitor inhibiting PDE10A activity by 50%). Non-specific activity was tested without the enzyme. The reaction was initiated by the addition of the substrate solution (cGMP and [3H]-cGMP) and allowed to progress for 20 minutes at room temperature. The reaction was terminated by adding 25 μl of YSi-SPA scintillation beads (GE Healthcare, cat. #RPNQ0150) in 18 mM zinc sulphate solution (stop reagent). After 1 h under shaking, the plate was centrifuged one minute at 170 g to allow beads to settle. Afterwards, radioactive counts were measured on a Perkin Elmer TopCount Scintillation plate reader.

human PDE10A, sequence (Q9Y233 other isoform, or with tags, fused parts or gaps): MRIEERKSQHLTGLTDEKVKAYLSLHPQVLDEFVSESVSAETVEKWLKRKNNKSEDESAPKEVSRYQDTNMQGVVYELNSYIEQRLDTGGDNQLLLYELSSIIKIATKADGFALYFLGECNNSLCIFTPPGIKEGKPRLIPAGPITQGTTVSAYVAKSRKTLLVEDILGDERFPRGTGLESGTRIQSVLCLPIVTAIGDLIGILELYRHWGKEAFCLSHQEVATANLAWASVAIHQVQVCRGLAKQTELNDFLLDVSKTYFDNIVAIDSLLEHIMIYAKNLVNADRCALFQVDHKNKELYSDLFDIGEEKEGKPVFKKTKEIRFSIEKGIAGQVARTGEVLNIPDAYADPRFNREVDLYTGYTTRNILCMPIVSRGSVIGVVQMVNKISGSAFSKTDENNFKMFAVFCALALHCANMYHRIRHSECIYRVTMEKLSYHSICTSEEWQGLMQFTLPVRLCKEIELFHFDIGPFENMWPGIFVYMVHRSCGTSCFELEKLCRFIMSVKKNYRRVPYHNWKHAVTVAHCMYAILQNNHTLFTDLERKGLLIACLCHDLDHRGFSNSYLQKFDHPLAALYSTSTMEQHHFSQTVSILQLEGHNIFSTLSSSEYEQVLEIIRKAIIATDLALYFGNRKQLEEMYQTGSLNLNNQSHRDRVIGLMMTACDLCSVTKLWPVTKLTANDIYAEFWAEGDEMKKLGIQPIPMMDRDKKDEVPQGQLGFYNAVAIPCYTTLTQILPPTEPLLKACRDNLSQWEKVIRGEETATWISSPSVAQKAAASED

Molecule	IC50 [nM]
CNC(=O)c1cc(CCc2nc(N3CCCC3)nn2C)nn2c(C)c(C(F)(F)F)nc12 [Example 70, N,3-dimethyl-6-(2-(1-methyl-3-(pyrrolidin-1-yl)-1H-1,2,4-triazol-5-yl)ethyl)-2-(trifluoromethyl)imidazo[1,2-b]pyridazine-8-carboxamide]	13.7
N-Ethyl-6,7-dimethyl-2-(2-(1-methyl-3-(pyrrolidin-1-yl)-1H-1,2,4-triazol-5-yl)ethyl)-imidazo[1,2-f][1,2,4]triazin-4-amine [Example 32]	6
N-Ethyl-N,6,7-trimethyl-2-(2-(1-methyl-3-(pyrrolidin-1-yl)-1H-1,2,4-triazol-5-yl)ethyl)imidazo[1,2-f][1,2,4]triazin-4-amine [Example 34]	5

Results, then the molecule that gave them:

IC50 [nM]	Molecule
8.7	Cc1c(C(F)(F)F)nn2ccc(C#Cc3nc(N4CCCC4)nn3C)nc12 [Example 71, 3-Methyl-5-[2-(2-methyl-5-pyrrolidin-1-yl-1,2,4-triazol-3-yl)ethynyl]-2-(trifluoromethyl)pyrazolo[1,5-a]pyrimidine]
32.9	Cc1c(C(F)(F)F)nn2ccc(CCc3nc(N4CCCC4)nn3C)nc12 [Example 72, 3-methyl-5-(2-(1-methyl-3-(pyrrolidin-1-yl)-1H-1,2,4-triazol-5-yl)ethyl)-2-(trifluoromethyl)pyrazolo[1,5-a]pyrimidine]
